Test results from patent US6461834B1, “Clostripain catalyzed amidation of peptides” (Bionebraska, Inc., priority 1998, dated 2002).

Tests used:
[1] = tested on: GLP-1(7-36)Ala-Phe-Ala-Hse; assay: Amidation by other Arg-specific proteases; type: biochemical; conditions: 1 M ammonium hydroxide, pH 10 and 8.5 (cathepsin B also pH 5.5), enzyme:substrate 1:50 to 1:100
Method: GLP-1(7-36)Ala-Phe-Ala-Hse (SEQ ID NO:1) (between 0.5 and 2 mg/mL) was dissolved in 1 M ammonium hydroxide at pH 10 and 8.5 and incubated individually with six different proteolytic enzymes, five of which have a specificity to cleave peptides at the carboxyl peptide bond of arginine residues, similar to that of clostripain. These included trypsin, thrombin, cathepsin B (also tested at pH 5.5), coagulation factor Xa, plasmin and papain. Papain is a thiol protease, albeit one which is not specific to arginyl bonds. […] Enzyme:substrate ratios were between 1:50 to 1:100 and protease specific additives were added where appropriate (e.g., calcium chloride).

clostripain [2] = target: T1, clostripain (Hathewaya histolytica, UniProt P09870); assay: Effect of organic solvent on clostripain proteolytic activity (N-Bz-Phe-Val-Arg-p-nitroanilide substrate, photometric initial rates); type: biochemical; conditions: varying amounts of organic solvent, otherwise as Table III
T1 construct: This protease is a heterodimer; purchased Worthington
Method: A substrate solution (1 mL) of 2 mg N-Bz-Phe-Val-Arg-p-nitroanilide in 2.5 mM dithiothreitol, 1 mM calcium chloride, 50 mM Tricine buffer at pH 8.5 was incubated at room temperature with 10 μg of clostripain, in an aqueous solution containing 10% (v/v) of organic solvent. Initial rates were determined by photometric detection of the liberated […].
These reactions were repeated in the presence of varying amounts of organic solvent, and optimal concentrations for proteolytic activity were determined for propylene carbonate (10%), N,N-dimethylformamide (20%), trifluoroethanol (20%), and acetonitrile (20%).

clostripain [3] = target: T1, clostripain; assay: Inhibition of clostripain amidation activity by organic solvent (GLP-1(7-36)Ala-Phe-Ala-Hse substrate, HPLC); type: biochemical; conditions: 2 M ammonium acetate, pH 10.4, 45° C., maximal attained amidation level
Method: Maximal attained amidation level in the presence of various organic solvents was determined with GLP-1(7-36)Ala-Phe-Ala-Hse (SEQ ID NO:1; 2 mg/mL) in 2.5 mM DTT, 1 mM calcium chloride, 2 M ammonium acetate, pH 10.4, at 45° C., with 20 μg clostripain in a 1 mL reaction. Aliquots of the reaction mixture were removed at regular time intervals, quenched with acetic acid and assayed by HPLC analysis on a reverse phase HPLC column.

[4] = type: physicochemical

Molecule | production of GLP-1(7-36)NH2 (reversed phase chromatography) [1] | optimal concentration for proteolytic activity (clostripain [2]) | also measured
thrombin | None of these proteases produced any GLP-1(7-36)NH2 |  | 
CN(C)C=O [Dimethylformamide, N,N-dimethylformamide] |  | 20% | 
trypsin | None of these proteases produced any GLP-1(7-36)NH2 |  | 
OCC(F)(F)F [Trifluoroethanol] |  |  | Extent of amidation (% of substrate converted) (clostripain [3]; 20% organic solvent): 9%
CC#N [Acetonitrile] |  | 20% | Extent of amidation (% of substrate converted) (clostripain [3]; 20% organic solvent): 18%
CC1COC(=O)O1 (centres unmarked) [Propylene carbonate] |  | 10% | Extent of amidation (% of substrate converted) (clostripain [3]; 10% organic solvent): 29%
His-Ala-Glu-Gly-Thr-Phe-Thr-Ser-Asp- Val-Ser-Ser-Tyr-Leu-Glu-Gly-Gln-Ala-Ala-Lys-Glu-Phe-Ile-Ala-Trp-Leu- Val-Lys-Gly-Arg-NH2 [GLP-1(7-36)NH2] |  |  | formation of D-contaminants ([4]; in water, pH about 4 to 8.4, −20° C. to 45° C., similar period of time): essentially no formation of D-contaminants; degradation ([4]; pH 9.4): 9%; degradation into D-contaminants ([4]; pH 10.5): a substantial amount of the peptide was degraded into D-contaminants
papain: thiol protease which is not specific to arginyl bonds (protein, UniProt P00784 134-345, looked up) Papain: IPEYVDWRQKGAVTPVKNQGSCGSCWAFSAVVTIEGIIKIRTGNLNEYSEQELLDCDRRSYGCNGGYPWSALQLVAQYGIHYRNTYPYEGVQRYCRSREKGPYAAKTDGVRQVQPYNEGALLYSIANQPVSVVLEAAGKDFQLYRGGIFVGPCGNKVDHAVAAVGYGPNYILIKNSWGTGWGENGYIRIKRGTGNSYGVCGLYTSSFYPVKN | None of these proteases produced any GLP-1(7-36)NH2 |  | 
clostripain: extracellular thiol endoprotease from Clostridia, high specificity for Arg-Xaa peptide linkages (protein, UniProt P09870 51-181; P09870 191-526, looked up) Clostripain light chain: NKNQKVTIMYYCDADNNLEGSLLNDIEEMKTGYKDSPNLNLIALVDRSPRYSSDEKVLGEDFSDTRLYKIEHNKANRLDGKNEFPEISTTSKYEANMGDPEVLKKFIDYCKSNYEADKYVLIMANHGGGAR Clostripain heavy chain: AICWDDSNLDKNGEADCLYMGEISDHLTEKQSVDLLAFDACLMGTAEVAYQYRPGNGGFSADTLVASSPVVWGPGFKYDKIFDRIKAGGGTNNEDDLTLGGKEQNFDPATITNEQLGALFVEEQRDSTHANGRYDQHLSFYDLKKAESVKRAIDNLAVNLSNENKKSEIEKLRGSGIHTDLMHYFDEYSEGEWVEYPYFDVYDLCEKINKSENFSSKTKDLASNAMNKLNEMIVYSFGDPSNNFKEGKNGLSIFLPNGDKKYSTYYTSTKIPHWTMQSWYNSIDTVKYGLNPYGKLSWCKDGQDPEINKVGNWFELLDSWFDKTNDVTGGVNHYQW | produced measureable GLP-1(7-36)NH2 |  | 
plasmin: proteolytic enzyme cleaving at the carboxyl peptide bond of arginine residues (protein, UniProt P00747 20-580; P00747 581-810, looked up, Plasmin, proteolytic enzyme cleaving at the carboxyl peptide bond of arginine residues) Plasmin heavy chain A: EPLDDYVNTQGASLFSVTKKQLGAGSIEECAAKCEEDEEFTCRAFQYHSKEQQCVIMAENRKSSIIIRMRDVVLFEKKVYLSECKTGNGKNYRGTMSKTKNGITCQKWSSTSPHRPRFSPATHPSEGLEENYCRNPDNDPQGPWCYTTDPEKRYDYCDILECEEECMHCSGENYDGKISKTMSGLECQAWDSQSPHAHGYIPSKFPNKNLKKNYCRNPDRELRPWCFTTDPNKRWELCDIPRCTTPPPSSGPTYQCLKGTGENYRGNVAVTVSGHTCQHWSAQTPHTHNRTPENFPCKNLDENYCRNPDGKRAPWCHTTNSQVRWEYCKIPSCDSSPVSTEQLAPTAPPELTPVVQDCYHGDGQSYRGTSSTTTTGKKCQSWSSMTPHRHQKTPENYPNAGLTMNYCRNPDADKGPWCFTTDPSVRWEYCNLKKCSGTEASVVAPPPVVLLPDVETPSEEDCMFGNGKGYRGKRATTVTGTPCQDWAAQEPHRHSIFTPETNPRAGLEKNYCRNPDGDVGGPWCYTTNPRKLYDYCDVPQCAAPSFDCGKPQVEPKKCPGR Plasmin light chain B: VVGGCVAHPHSWPWQVSLRTRFGMHFCGGTLISPEWVLTAAHCLEKSPRPSSYKVILGAHQEVNLEPHVQEIEVSRLFLEPTRKDIALLKLSSPAVITDKVIPACLPSPNYVVADRTECFITGWGETQGTFGAGLLKEAQLPVIENKVCNRYEFLNGRVQSTELCAGHLAGGTDSCQGDSGGPLVCFEKDKYILQGVTSWGLGCARPNKPGVYVRVSRFVTWIEGVMRNN | None of these proteases produced any GLP-1(7-36)NH2 |  | 
